# According to PubChem BioAssay AID2060617 (Molecular Pharmacology Branch, DTP, NCI, 2025):
# Where “and” joins values, the source holds several entries; their conditions need not be identical. Identical values can stand only once.
# Test system: 485368-065-R4-J2-PDC spheroids with HUVEC/MSC, viability
# Assay: Anticancer human tumor 485368-065-R4-J2-PDC patient-derived pancreatic carcinoma cell line growth inhibition [CLK]
# Conditions: for viability, T/C: stronger effect = lower value
# Outline: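 Multi-cell-type spheroids combined patient-derived tumor cells with HUVEC endothelial cells and human mesenchymal stem cells. Paired agents were dosed in half-log steps down from about clinical Cmax, or from 10 microM where Cmax was unknown.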
# [1] = curve of first compound, second compound 0.0316 µM
# [2] = curve of first compound, second compound 0.1 µM
# [3] = curve of first compound, second compound 0.316 µM
# [4] = curve of first compound, second compound 1 µM
# [5] = curve of first compound, second compound 3.16 µM
# [6] = curve of first compound, second compound 10 µM
# [7] = second compound 0.0316 µM, first compound 0.0316 µM
# [8] = second compound 0.0316 µM, first compound 0.1 µM
# [9] = second compound 0.0316 µM, first compound 0.316 µM
# [10] = second compound 0.0316 µM, first compound 1 µM
# [11] = second compound 0.0316 µM, first compound 3.16 µM
# [12] = second compound 0.0316 µM, first compound 10 µM
# [13] = second compound 0.1 µM, first compound 0.0316 µM
# [14] = second compound 0.1 µM, first compound 0.1 µM
# [15] = second compound 0.1 µM, first compound 0.316 µM
# [16] = second compound 0.1 µM, first compound 1 µM
# [17] = second compound 0.1 µM, first compound 3.16 µM
# [18] = second compound 0.1 µM, first compound 10 µM
# [19] = second compound 0.316 µM, first compound 0.0316 µM
# [20] = second compound 0.316 µM, first compound 0.1 µM
# [21] = second compound 0.316 µM, first compound 0.316 µM
# [22] = second compound 0.316 µM, first compound 1 µM
# [23] = second compound 0.316 µM, first compound 3.16 µM
# [24] = second compound 0.316 µM, first compound 10 µM
# [25] = second compound 1 µM, first compound 0.0316 µM
# [26] = second compound 1 µM, first compound 0.1 µM
# [27] = second compound 1 µM, first compound 0.316 µM
# [28] = second compound 1 µM, first compound 1 µM
# [29] = second compound 1 µM, first compound 3.16 µM
# [30] = second compound 1 µM, first compound 10 µM
# [31] = second compound 3.16 µM, first compound 0.0316 µM
# [32] = second compound 3.16 µM, first compound 0.1 µM
# [33] = second compound 3.16 µM, first compound 0.316 µM
# [34] = second compound 3.16 µM, first compound 1 µM
# [35] = second compound 3.16 µM, first compound 3.16 µM
# [36] = second compound 3.16 µM, first compound 10 µM
# [37] = second compound 10 µM, first compound 0.0316 µM
# [38] = second compound 10 µM, first compound 0.1 µM
# [39] = second compound 10 µM, first compound 0.316 µM
# [40] = second compound 10 µM, first compound 1 µM
# [41] = second compound 10 µM, first compound 3.16 µM
# [42] = second compound 10 µM, first compound 10 µM
# [43] = second compound 0.0316 µM, first compound 0.00316 µM
# [44] = second compound 0.0316 µM, first compound 0.01 µM
# [45] = second compound 0.1 µM, first compound 0.00316 µM
# [46] = second compound 0.1 µM, first compound 0.01 µM
# [47] = second compound 0.316 µM, first compound 0.00316 µM
# [48] = second compound 0.316 µM, first compound 0.01 µM
# [49] = second compound 1 µM, first compound 0.00316 µM
# [50] = second compound 1 µM, first compound 0.01 µM
# [51] = second compound 3.16 µM, first compound 0.00316 µM
# [52] = second compound 3.16 µM, first compound 0.01 µM
# [53] = second compound 10 µM, first compound 0.00316 µM
# [54] = second compound 10 µM, first compound 0.01 µM
# 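Also: spheroids exposed to compounds for seven days.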
# 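For viability, T/C in this document: 100% = DMSO vehicle control wells.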
compound,measurement,setting,value
CC1(C)CCC(CN2CCN(c3ccc(C(=O)NS(=O)(=O)c4ccc(NCC5CCOCC5)c([N+](=O)[O-])c4)c(Oc4cnc5[nH]ccc5c4)c3)CC2)=C(c2ccc(Cl)cc2)C1 + CN1CCN(c2cc(C(=O)Nc3cc4cc(-c5cnn(C)c5)ccc4cn3)ccn2)CC1,IC50,[1],8030 nM
same,IC50,[2],7820 nM
same,IC50,[3],6550 nM
same,IC50,[4],< 31.6 nM
same,IC50,[5],< 31.6 nM
same,IC50,[6],< 31.6 nM
same,"viability, T/C",[7],102%
same,"viability, T/C",[8],112%
same,"viability, T/C",[9],114%
same,"viability, T/C",[10],111%
same,"viability, T/C",[11],122%
same,"viability, T/C",[12],35.4%
same,"viability, T/C",[13],113%
same,"viability, T/C",[14],112%
same,"viability, T/C",[15],112%
same,"viability, T/C",[16],113%
same,"viability, T/C",[17],121%
same,"viability, T/C",[18],32.4%
same,"viability, T/C",[19],86.8%
same,"viability, T/C",[20],97.2%
same,"viability, T/C",[21],94.6%
same,"viability, T/C",[22],95.3%
same,"viability, T/C",[23],104%
same,"viability, T/C",[24],23.5%
same,"viability, T/C",[25],2.85%
same,"viability, T/C",[26],0.83%
same,"viability, T/C",[27],2.34%
same,"viability, T/C",[28],1.27%
same,"viability, T/C",[29],1.79%
same,"viability, T/C",[30],3.68%
same,"viability, T/C",[31],2.29%
same,"viability, T/C",[32],1.33%
same,"viability, T/C",[33],2.68%
same,"viability, T/C",[34],2.94%
same,"viability, T/C",[35],3.79%
same,"viability, T/C",[36],3.42%
same,"viability, T/C",[37],1.77%
same,"viability, T/C",[38],2.36%
same,"viability, T/C",[39],4.56%
same,"viability, T/C",[40],5.88%
same,"viability, T/C",[41],3.51%
same,"viability, T/C",[42],1.68%
CC(C)CC(NC(=O)C(Cc1ccccc1)NC(=O)c1cnccn1)B(O)O (centres undefined),"viability, T/C",compound 0.000949 µM,89.2% and 97.4%
same,"viability, T/C",compound 0.003 µM,109% and 134%
same,"viability, T/C",compound 0.00949 µM,31.1%
same,"viability, T/C",compound 0.03 µM,23.3% and 18.4%
same,"viability, T/C",compound 0.0949 µM,12.5% and 15.6%
same,"viability, T/C",compound 0.3 µM,5.93% and 5.56%
same,IC50,curve of compound,6.88 nM and 7.33 nM
CCN1CCN(Cc2ccc(Nc3ncc(F)c(-c4cc(F)c5nc(C)n(C(C)C)c5c4)n3)nc2)CC1 + CNC(=O)c1ccc(Nc2nc(OC3CCCC3)c3c(-c4ccc5nc(C)oc5c4)c[nH]c3n2)c(OC)c1,IC50,[1],> 1000 nM
same,IC50,[2],> 1000 nM
same,IC50,[3],> 1000 nM
same,IC50,[4],> 1000 nM
same,IC50,[5],> 1000 nM
same,IC50,[6],> 1000 nM
same,"viability, T/C",[43],95.9%
same,"viability, T/C",[44],106%
same,"viability, T/C",[7],103%
same,"viability, T/C",[8],135%
same,"viability, T/C",[9],134%
same,"viability, T/C",[10],117%
same,"viability, T/C",[45],89.4%
same,"viability, T/C",[46],92%
same,"viability, T/C",[13],93%
same,"viability, T/C",[14],95.1%
same,"viability, T/C",[15],109%
same,"viability, T/C",[16],100%
same,"viability, T/C",[47],81.5%
same,"viability, T/C",[48],81%
same,"viability, T/C",[19],75.2%
same,"viability, T/C",[20],66.5%
same,"viability, T/C",[21],84.5%
same,"viability, T/C",[22],72.9%
same,"viability, T/C",[49],71.8%
same,"viability, T/C",[50],77.3%
same,"viability, T/C",[25],82.8%
same,"viability, T/C",[26],75.7%
same,"viability, T/C",[27],75.4%
same,"viability, T/C",[28],73.2%
same,"viability, T/C",[51],72.7%
same,"viability, T/C",[52],71.7%
same,"viability, T/C",[31],67.1%
same,"viability, T/C",[32],63.1%
same,"viability, T/C",[33],60.2%
same,"viability, T/C",[34],63.2%
same,"viability, T/C",[53],72.1%
same,"viability, T/C",[54],65.1%
same,"viability, T/C",[37],66%
same,"viability, T/C",[38],60.7%
same,"viability, T/C",[39],60.4%
same,"viability, T/C",[40],56.3%
CCN1CCN(Cc2ccc(Nc3ncc(F)c(-c4cc(F)c5nc(C)n(C(C)C)c5c4)n3)nc2)CC1,"viability, T/C",compound 0.00316 µM,91.1% and 106%
same,"viability, T/C",compound 0.01 µM,114% and 96.1%
same,"viability, T/C",compound 0.0316 µM,115% and 116%
same,"viability, T/C",compound 0.1 µM,140% and 113%
same,"viability, T/C",compound 0.316 µM,128% and 129%
same,"viability, T/C",compound 1 µM,117% and 116%
same,IC50,curve of compound,> 1000 nM
CCc1c2c(nc3ccc(O)cc13)-c1cc3c(c(=O)n1C2)COC(=O)[C@]3(O)CC + CNC(=O)c1ccc(Nc2nc(OC3CCCC3)c3c(-c4ccc5nc(C)oc5c4)c[nH]c3n2)c(OC)c1,IC50,[1],3.69 nM
same,IC50,[2],< 3.16 nM
same,IC50,[3],< 3.16 nM
same,IC50,[4],< 3.16 nM
same,IC50,[5],< 3.16 nM
same,IC50,[6],< 3.16 nM
same,"viability, T/C",[43],53.6%
same,"viability, T/C",[44],27%
same,"viability, T/C",[7],13.1%
same,"viability, T/C",[8],7.46%
same,"viability, T/C",[9],10.5%
same,"viability, T/C",[10],16%
same,"viability, T/C",[45],46.3%
same,"viability, T/C",[46],27%
same,"viability, T/C",[13],12.6%
same,"viability, T/C",[14],7.47%
same,"viability, T/C",[15],8.97%
same,"viability, T/C",[16],17%
same,"viability, T/C",[47],41.9%
same,"viability, T/C",[48],20.4%
same,"viability, T/C",[19],11.7%
same,"viability, T/C",[20],7.63%
same,"viability, T/C",[21],9%
same,"viability, T/C",[22],16.2%
same,"viability, T/C",[49],25.8%
same,"viability, T/C",[50],13.5%
same,"viability, T/C",[25],8.98%
same,"viability, T/C",[26],6.66%
same,"viability, T/C",[27],10.7%
same,"viability, T/C",[28],18.1%
same,"viability, T/C",[51],20.9%
same,"viability, T/C",[52],11.3%
same,"viability, T/C",[31],9.77%
same,"viability, T/C",[32],7.07%
same,"viability, T/C",[33],11.5%
same,"viability, T/C",[34],18.9%
same,"viability, T/C",[53],19.4%
same,"viability, T/C",[54],13.9%
same,"viability, T/C",[37],7.33%
same,"viability, T/C",[38],7.37%
same,"viability, T/C",[39],15.9%
same,"viability, T/C",[40],20.8%
CC(Nc1ccc2c(c1)OCCn1cc(N3C(=O)OCC3C(F)F)nc1-2)C(N)=O (centres undefined) + CN1CCN(c2cc(C(=O)Nc3cc4cc(-c5cnn(C)c5)ccc4cn3)ccn2)CC1,IC50,[1],> 10000 nM
same,IC50,[2],> 10000 nM
same,IC50,[3],158 nM
same,IC50,[4],< 31.6 nM
same,IC50,[5],< 31.6 nM
same,IC50,[6],< 31.6 nM
same,"viability, T/C",[7],92.4%
same,"viability, T/C",[8],109%
same,"viability, T/C",[9],103%
same,"viability, T/C",[10],83.3%
same,"viability, T/C",[11],78.8%
same,"viability, T/C",[12],62.3%
same,"viability, T/C",[13],98.7%
same,"viability, T/C",[14],95.5%
same,"viability, T/C",[15],93%
same,"viability, T/C",[16],68.8%
same,"viability, T/C",[17],58.6%
same,"viability, T/C",[18],53.4%
same,"viability, T/C",[19],68.9%
same,"viability, T/C",[20],55.8%
same,"viability, T/C",[21],41.9%
same,"viability, T/C",[22],30.3%
same,"viability, T/C",[23],27.2%
same,"viability, T/C",[24],20.7%
same,"viability, T/C",[25],1.25%
same,"viability, T/C",[26],1.05%
same,"viability, T/C",[27],0.92%
same,"viability, T/C",[28],0.74%
same,"viability, T/C",[29],1.65%
same,"viability, T/C",[30],1.84%
same,"viability, T/C",[31],2.26%
same,"viability, T/C",[32],1.12%
same,"viability, T/C",[33],3.5%
same,"viability, T/C",[34],2.02%
same,"viability, T/C",[35],2.42%
same,"viability, T/C",[36],2.95%
same,"viability, T/C",[37],1.54%
same,"viability, T/C",[38],2.13%
same,"viability, T/C",[39],2.05%
same,"viability, T/C",[40],2.62%
same,"viability, T/C",[41],2.43%
same,"viability, T/C",[42],2.04%
C#Cc1c(F)ccc2cc(O)cc(-c3ncc4c(N5CC6CCC(C5)N6)nc(OCC56CCCN5CC(F)C6)nc4c3F)c12 (centres undefined),"viability, T/C",compound 0.0316 µM,99.6% and 90.9%
same,"viability, T/C",compound 0.1 µM,97.5% and 111%
same,"viability, T/C",compound 0.316 µM,102% and 103%
same,"viability, T/C",compound 1 µM,98.2% and 102%
same,"viability, T/C",compound 3.16 µM,117% and 107%
same,"viability, T/C",compound 10 µM,114% and 106%
same,IC50,curve of compound,> 10000 nM
